Tests used:
[1] = test system: HEK293; test: Cytotoxicity against human HEK293 cells assessed as reduction in cell viability after 72 hrs by MTT assay; type: cell-based; settings: HEK293, 72 h
[2] = test system: MV4-11; test: Induction of apoptosis in human MV4-11 cells assessed as early apoptotic cells at 1.25 uM after 24 hrs by Annexin-V/propidium iodide staining based flow cytometric method (reference value: 0.36%); type: functional
[3] = biological target: CDK2/Cyclin A2 (Homo sapiens, UniProt P24941)
Description: Inhibition of human CDK2/cyclin-A2 using H1 histone as substrate after 2 hrs by [gamma-33P]-ATP assay

[4] = Antiproliferative activity against human BGC803 cells assessed as reduction in cell viability after 72 hrs by MTT assay; type: functional, cell-based; settings: BGC803, 72 h
[5] = test system: MCF7; test: Antiproliferative activity against human MCF7 cells assessed as reduction in cell viability after 72 hrs by MTT assay; type: functional, cell-based; settings: MCF7, 72 h
[6] = Toxicity in BALB/c mouse assessed as effect on body weight at 15 to 45 mg/kg, iv administered every other day for 21 days; type: organism-based; settings: in vivo, 504 h
[7] = test system: MV4-11; test: Induction of apoptosis in human MV4-11 cells assessed as viable cells at 0.25 uM after 24 hrs by Annexin-V/propidium iodide staining based flow cytometric method (reference value: 96.94%); type: functional; settings: MV4-11, 24 h, read-out: Activity
[8] = test system: MV4-11; test: cells; settings: Homo sapiens, MV4-11, 72 h
Description: Antiproliferative activity against human MV4-11 cells assessed as reduction in cell viability after 72 hrs by MTT assay

[9] = biological target: Cyclin-dependent kinase 9 (Homo sapiens) (UniProt P50750); test: Inhibition of CDK9 in human MV4-11 cells assessed as inhibition of RNA polymerase 2 phosphorylation at S2 residue after 4 hrs by Western blot analysis; type: cell-based
[10] = test system: MV4-11; test: Induction of apoptosis in human MV4-11 cells assessed as early apoptotic cells at 0.25 uM after 24 hrs by Annexin-V/propidium iodide staining based flow cytometric method (reference value: 0.36%); type: functional
[11] = test system: MV4-11; test: Induction of apoptosis in human MV4-11 cells assessed as viable cells at 0.05 uM after 24 hrs by Annexin-V/propidium iodide staining based flow cytometric method (reference value: 96.94%); type: functional; settings: MV4-11, 24 h, read-out: Activity
[12] = test system: HepG2; test: cells; settings: Homo sapiens, HepG2, 72 h
Description: Antiproliferative activity against human HepG2 cells assessed as reduction in cell viability after 72 hrs by MTT assay

[13] = test system: MV4-11; test: Antitumor activity against human MV4-11 cells xenografted in BALB/c mouse assessed as tumour growth inhibition at 30 mg/kg, iv administered every other day for 21 days relative to control; type: functional; settings: MV4-11, iv, 504 h, read-out: TGI
[14] = physchem; settings: buffer, pH 7.4
Description: Hydrophobicity, log D of compound at pH 7.4

Cyclin-dependent kinase 9 (Homo sapiens), sequence (P50750 whole entry): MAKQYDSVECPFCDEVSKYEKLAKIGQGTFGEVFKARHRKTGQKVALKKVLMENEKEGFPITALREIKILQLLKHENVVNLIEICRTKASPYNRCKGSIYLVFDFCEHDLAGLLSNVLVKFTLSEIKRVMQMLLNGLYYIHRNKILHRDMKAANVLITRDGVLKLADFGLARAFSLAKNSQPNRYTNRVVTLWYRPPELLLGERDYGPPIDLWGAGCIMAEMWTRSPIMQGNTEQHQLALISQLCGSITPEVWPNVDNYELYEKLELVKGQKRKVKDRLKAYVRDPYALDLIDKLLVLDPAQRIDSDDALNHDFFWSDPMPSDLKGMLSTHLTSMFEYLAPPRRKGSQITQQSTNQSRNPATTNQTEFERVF

## COc1cc(O)c2c(=O)cc(-c3ccc(N4CCN(C)CC4)cc3)oc2c1Oc1c(C)n[nH]c1C
[1]
  IC50: 22100 nM
[2]
  Activity: 26.43%
[3]
  IC50: 913 nM
[4]
  IC50: 3120 nM
[5]
  IC50: 480 nM
[6]
  Activity: Non-Toxic
[7]
  viability at 0.25 µM: 63.7%
[8]
  IC50: 20 nM
[9]
  inhibition: Dose-dependent effect
[10]
  Activity: 21.25%
[11]
  viability at 0.05 µM: 74.8%
[12]
  IC50: 2670 nM
[13]
  inhibition in vivo at 30 mg/kg: 42.6%
[14]
  logD: 2.01

— ChEMBL document CHEMBL4364281, “Design of wogonin-inspired selective cyclin-dependent kinase 9 (CDK9) inhibitors with potent in vitro and in vivo antitumor activity” (Eur J Med Chem, 2019)
